Series [1] concerns human liver cancer cells (HepG2). Briefly: MTT antiproliferative assay, HepG2. In kind it is cell-based. Conditions: for inhibition at 10 µM: read-out: Inhibition rate, HepG2; for IC50: MTT assay, 48 h, read-out: In vitro cytotoxicity IC50, HepG2. The method in brief: (§1)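 Cells seeded at 10^4 per well in DMEM or RPMI 1640, pre-cultured 24 h before compound addition. Antiproliferative effect measured by MTT, with 5-Fluorouracil and Gefitinib as references; IC50 derived from concentration–response fitting.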
(Tetrazolium dyes change colour on reduction, which living cells bring about.)

Series [2] deals with human non-small cell lung cancer cells (A549). The experiment in a line: MTT antiproliferative assay, A549. In kind it is cell-based. Conditions: for inhibition at 10 µM: A549, 10 μM, read-out: Inhibition rate, A549; for IC50: A549, 48 h, MTT assay, 48 h, read-out: In vitro cytotoxicity IC50, A549. The procedure, abridged: as §1
For series [3], the system named is A549, PC-3, HepG2 and K562 cells. The experiment in a line: MTT antiproliferative assay, four cancer cell lines taken together. The series is classed as cell-based, human. The procedure:
A549, PC-3, HepG2 and K562 cells were purchased from the Kunming cell bank of the Chinese academy of sciences. All cell lines were cultured in DMEM or RPMI 1640 complete medium. Logarithmic growth cells were cultured in 96-well plates at a concentration of 10^4 cells per well and pre-cultured for 24 h before adding test compounds. The MTT test with 5-Fluorouracil and Gefitinib as reference compounds were used to evaluate antiproliferative activity of target compounds in four human cancer line cells. For the estimation of the inhibition concentration (IC50), the Graph Pad Prism (GraphPad Software, San Diego, CA) was used.

Series [4] relates to human prostate cancer cells (PC-3). The experiment in a line: MTT antiproliferative assay, PC-3. The series is classed as cell-based. The settings on record: Homo sapiens; for IC50: 48 h, MTT assay, read-out: In vitro cytotoxicity IC50, PC-3; for inhibition at 10 µM: read-out: Inhibition rate, PC-3. The method in brief: as §1
Series [5] has as its system human chronic myeloid leukaemia cells (K562). The experiment in a line: MTT antiproliferative assay, K562. In kind it is cell-based. Conditions: for inhibition at 10 µM: K562, 10 μM, read-out: Inhibition rate, K562; for IC50: K562, 48 h, MTT assay, 48 h, read-out: In vitro cytotoxicity IC50, K562. The method in brief:
as §1

Series [6] in a line: MTT cytotoxicity, normal cell line HEK293. In kind it is cell-based, human. Conditions: human, HEK293 cells (normal cell line); MTT assay, 48 h; normal cell line; CC50; read-out: In vitro cytotoxicity IC50, HEK293.
The test system of series [7] is normal cell line (HEK293). Briefly: MTT cytotoxicity, normal cell line HEK293. The settings on record: Homo sapiens, HEK293; 10 μM; read-out: Inhibition rate, HEK293. The series is classed as cell-based, human.
The subject of series [8] is A549 cells. Briefly: Annexin V-FITC/PI apoptosis flow cytometry, A549. The series is classed as cell-based, human. Conditions: 4 µM, 48 h. As for the experimental part: (§2) Annexin-V/FITC assay, after the adherent cells grew stably in the 6-well plate, each group was reacted with different concentrations of compound solutions for 48 h. Then, cells were collected by trypsinization without EDTA, rinsed twice with PBS, followed by the Annexin V-FITC/PI apoptosis detection kit (Solarbio, Bei Jing, China) according to the kit instructions, flow cytometry by BD FACSCalibur instrument (American BD Company Shanghai Co., Ltd.).
On the technique in general: In flow cytometry, cells or beads pass a laser one at a time.

Series [9] relates to K562 cells. Briefly: Annexin V-FITC/PI apoptosis flow cytometry, K562. In kind it is cell-based, human. Conditions: 48 h. The arrangement: total numbers of apoptotic cells, K562: dose or concentration left out as unconfirmed. The procedure:
as §2

Series [10] has as its system K562 cells. The experiment in a line: Cell cycle analysis (PI staining, flow cytometry), K562. The series is classed as cell-based, human. The settings on record: 4 µM, 48 h. The procedure: (§3) A549 or K562 cells were separately seeded at 4.0 × 10^5cells/well in six-well plates and incubated for 24 h until adherent. […] After treatment, the cells were collected, and washed twice with pre-cooled PBS and then fixed with ice-cold ethanol (70%), subsequently kept 4 °C for overnight. After washing twice with PBS, cells were incubated at 37 °C with 100 µ L RNase A for 30 min. After this, cells were incubated with 400 µL PI for 30 min at 4 °C. Finally, the cell cycle distribution of compound 10 b was analysed via the BD FACSCalibur flow cytometry (American BD Corporation Shanghai Co. Ltd.)

Series [11] concerns A549 cells. Briefly: Cell cycle analysis (PI staining, flow cytometry), A549. Conditions: 4 µM, 48 h. The series is classed as cell-based, human. As for the experimental part: as §3

Structures are written as SMILES.

A word on the inhibition: it is the percentage by which the read-out fell short of the control. The IC50 is the concentration that inhibits the measured activity by half. Broadly, the melting point is the temperature of the solid-liquid transition.

For `O=C(CSc1nnc(-c2ccccc2Br)s1)Nc1cc(-c2c[nH]c3ccccc23)n[nH]1` [Compound 10c, N-(3-(1H-indol-3-yl)-1H-pyrazol-5-yl)-2-((5–(2-bromophenyl)-1,3,4-thiadiazol-2-yl)thio)acetamide], the inhibition at 10 µM in [1] is 11.9 ± 2.21%; in [2], 24.3 ± 2.77%; in [4], 30.3 ± 12.6%; in series [5] it was 27.1 ± 1.87%; in series [7], 33 ± 1.46%. The IC50 in [1] was 61.3 ± 17 µM; in series [2] it was 18.8 ± 2.92 µM; in series [4], 31.9 ± 18 µM; in series [5], 33.7 ± 3.54 µM. Moreover, the “antiproliferative activity in words” value in series [3] is reported as “quite weak antiproliferative activity”. In addition, the IC50 at 48 h in series [6] amounted to 63.7 ± 6.51 µM.

Regarding `O=c1[nH]cc(F)c(=O)[nH]1` [5-Fluorouracil, reference compound], in [1], the inhibition at 10 µM is 26.4 ± 0.513% and the IC50 was 15 ± 3.87 µM. Moreover, in [2], the inhibition at 10 µM amounted to 54.3 ± 1.07% and the IC50 was determined as 3.46 ± 0.45 µM. In addition, the “total numbers of apoptotic cells, A549” value in the series on A549 cells [8] was 28.3%. The “total numbers of apoptotic cells, K562” value in the series on K562 cells [9] is 13.4%. In the series on K562 cells [10], the “DNA contents of the live population, G0/G1 phase, K562” value turned out to be 30.93%; the “DNA contents of the live population, G2/M phase, K562” value was 16.07%; the “DNA contents of the live population, S phase, K562” value is recorded as 48.27%. Besides, in the series on A549 cells [11], the “DNA contents of the live population, G0/G1 phase, A549” value amounted to 46.87%; the “DNA contents of the live population, G2/M phase, A549” value is listed as 13.13%; the “DNA contents of the live population, S phase, A549” value turned out to be 34.63%. Moreover, in series [4], the IC50 stood at 10.9 ± 3.4 µM and the inhibition at 10 µM is 37 ± 6.18%. Besides, in series [5], the inhibition at 10 µM is 39.9 ± 6.44% and the IC50 is 12.3 ± 2.5 µM. Moreover, the IC50 at 48 h in [6] came out at 3.62 ± 0.25 µM. For the same compound, the inhibition at 10 µM in [7] was determined as 72.1 ± 3.71%.

As for `O=C(CSc1nnc(-c2ccccc2F)s1)Nc1cc(-c2c[nH]c3ccccc23)n[nH]1` [Compound 10g, N-(3-(1H-indol-3-yl)-1H-pyrazol-5-yl)-2-((5-(2-fluorophenyl)-1,3,4-thiadiazol-2-yl)thio)acetamide], the inhibition at 10 µM in series [1] turned out to be 56.9 ± 9.69%; in series [2] it was 55.2 ± 3.17%; in [4], 96.4 ± 2.21%; in series [5] it was 97.4 ± 0.838%; in series [7] it was 68.1 ± 4.49%. Also, the IC50 in [1] stood at 11.8 ± 2.02 µM; in series [2], 14.2 ± 1.61 µM; in series [4], 2.98 ± 0.28 µM; in series [5], 3.32 ± 0.09 µM. Also, the “antiproliferative activity in words” value in series [3] is “quite weak antiproliferative activity”. Also, the IC50 at 48 h in series [6] stood at 10.1 ± 2.2 µM.

The compound `Nn1c(SCC(=O)Nc2cc(-c3c[nH]c4ccccc34)n[nH]2)nnc1-c1ccccn1` [Compound 11i, N-(3-(1H-indol-3-yl)-1H-pyrazol-5-yl)-2-((4-amino-5-(pyridine-2-yl)-4H-1,2,4-triazol-3-yl)thio)acetamide] returned a melting point of 208 to 210 °C. In series [1], the inhibition at 10 µM is 95.3 ± 3.04% and the IC50 was 2.5 ± 1.44 µM. Further, in series [2], the inhibition at 10 µM stood at 94.8 ± 1.91% and the IC50 turned out to be 2.97 ± 0.83 µM. Also, in series [4], the IC50 was determined as 2.77 ± 0.91 µM and the inhibition at 10 µM amounted to 83.6 ± 5.66%. For the same compound, in [5], the inhibition at 10 µM worked out at 99.5 ± 0.155% and the IC50 was determined as 1.26 ± 0.24 µM. In [6], the IC50 at 48 h stood at 1.45 ± 0.22 µM. Further, in [7], the inhibition at 10 µM was 67.1 ± 2.18%.

Turning to `O=C(CSc1nnc(Cc2ccc(Cl)cc2)s1)Nc1cc(-c2c[nH]c3ccccc23)n[nH]1` [Compound 10d, N-(3-(1H-indol-3-yl)-1H-pyrazol-5-yl)-2-((5-(4-chlorobenzyl)-1,3,4-thiadiazol-2-yl)thio)acetamide], the melting point lay in the range of 151 to 153 °C. Besides, in [1], the inhibition at 10 µM was found to be 93.7 ± 1.88% and the IC50 was 0.732 ± 0.15 µM. Besides, in [2], the inhibition at 10 µM came out at 90.7 ± 6.19% and the concentration for half-maximal inhibition (IC50) was found to be 1.28 ± 0.33 µM. In series [4], the IC50 is 1.6 ± 0.44 µM and the inhibition at 10 µM was 82.6 ± 4.95%. Further, in [5], the inhibition at 10 µM came to 96.1 ± 1.29% and the IC50 is 0.184 ± 0.02 µM. Also, the half-inhibitory concentration (IC50) at 48 h in series [6] was found to be 0.74 ± 1.25 µM. In addition, the inhibition at 10 µM in series [7] is 84.7 ± 2.75%.

For the origin of these results see PMC9848270, “Synthesis and biological assessment of indole derivatives containing penta-heterocycles scaffold as novel anticancer agents towards A549 and K562 cells” (Journal of Enzyme Inhibition and Medicinal Chemistry, 2023).
